Among the data in patent US20250368649A1, “TETRAHYDROPYRIDOPYRIMIDINE PAN-KRAS INHIBITORS” (Mirati Therapeutics, Inc., priority 2022, published 2025) are inhibition and IC50 values, retold here.

Molecules are shown by their SMILES.

One experiment addresses KRas G13D (Homo sapiens, UniProt P01116, G13D). The class given is binding. As to conditions: single point, 10 nM compound, read-out: Binding to KRas (% inhibition at 10 nM) G13D.
For the next experiment, the system named is MKN1 cells. Kind of experiment: Inhibition of KRas-mediated phosphorylation of ERK (Cisbio HTRF pERK), MKN1 cells. The class given is cell-based. The conditions noted are these: Homo sapiens, MKN-1, 3 hour compound incubation, Cisbio pERK HTRF. An outline of the steps:
(§1)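 Seeding density of 6,000 cells per well was used, with cultures kept in RPMI/10% FBS from day 1.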
For orientation: TR-FRET usually uses a lanthanide donor and a delayed reading to cut background.

Another experiment addresses KRas G12S (Homo sapiens, UniProt P01116, G12S). Type of experiment: binding. The conditions noted are these: single point, 10 nM compound, read-out: Binding to KRas (% inhibition at 10 nM) G12S.
Another experiment concerns H460 cells. The experiment is described as follows: Inhibition of KRas-mediated phosphorylation of ERK (Cisbio HTRF pERK), H460 cells. The class given is cell-based. The conditions noted are these: Homo sapiens; for IC50: NCI-H460, 3 h, 3 hr compound incubation, Cisbio pERK HTRF; for inhibition at 0.1 µM: NCI-H460, single point at 100 nM, 3 hrs compound incubation.
The target in another experiment is KRas WT (Homo sapiens, UniProt P01116). The experiment is described as follows: KRas binding assay (TR-FRET displacement), KRas WT. As to conditions: single point, 10 nM compound.
KRas WT, sequence (P01116 1-169 isoform P01116-2): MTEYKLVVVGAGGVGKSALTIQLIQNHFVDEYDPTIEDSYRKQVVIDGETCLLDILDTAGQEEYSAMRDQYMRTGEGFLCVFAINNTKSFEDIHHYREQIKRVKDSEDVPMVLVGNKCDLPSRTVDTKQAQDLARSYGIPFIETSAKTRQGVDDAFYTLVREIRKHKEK
The next experiment relates to HCT116 cells. The experiment is described as follows: Inhibition of KRas-mediated phosphorylation of ERK (Cisbio HTRF pERK), HCT116 cells. As to conditions: Homo sapiens; for IC50: HCT-116, 3 h, 3 hr compound incubation, Cisbio pERK HTRF; for inhibition at 0.1 µM: HCT-116, single point at 100 nM, 3 hrs compound incubation. The class given is cell-based.
Another experiment deals with KRas G12D (Homo sapiens, UniProt P01116, G12D). The experiment is described as follows: biochemical. The conditions noted are these: Binding to KRas (IC50 nM) G12D, TR-FRET displacement, KRas G12D.
KRas G12D, sequence (P01116 1-169 isoform P01116-2 G12D): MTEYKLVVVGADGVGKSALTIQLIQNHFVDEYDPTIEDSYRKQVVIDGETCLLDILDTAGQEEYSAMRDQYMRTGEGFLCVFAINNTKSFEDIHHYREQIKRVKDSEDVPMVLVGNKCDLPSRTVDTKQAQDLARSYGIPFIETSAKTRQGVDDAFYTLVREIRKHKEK
For the next experiment, the system named is H727 cells. Kind of experiment: Inhibition of KRas-mediated phosphorylation of ERK (Cisbio HTRF pERK), H727 cells. The class given is cell-based. The conditions noted are these: Homo sapiens; for IC50: NCI-H727, 3 h, 3 hr compound incubation, Cisbio pERK HTRF; for inhibition at 0.1 µM: NCI-H727, single point at 100 nM, 3 hrs compound incubation.
In the next experiment the test system is A549 cells. The experiment is described as follows: Inhibition of KRas-mediated phosphorylation of ERK (Cisbio HTRF pERK), A549 cells. The conditions noted are these: Homo sapiens; for IC50: A549, 3 h, 3 hr compound incubation, Cisbio pERK HTRF; for inhibition at 0.1 µM: single point at 100 nM, 3 hrs compound incubation. The class given is cell-based.
The subject of the next experiment is PSN1 cells. The experiment is described as follows: Inhibition of KRas-mediated phosphorylation of ERK (Cisbio HTRF pERK), PSN1 cells. The class given is cell-based. As to conditions: Homo sapiens, PSN1, 3 h, 3 hour compound incubation, Cisbio pERK HTRF. The method, boiled down: as §1
For the next experiment, the target named is KRas Q61H (Homo sapiens, UniProt P01116, Q61H). Kind of experiment: KRas binding assay (TR-FRET displacement), KRas Q61H. The conditions noted are these: single point, 10 nM compound.
KRas Q61H, sequence (P01116 1-169 isoform P01116-2 Q61H): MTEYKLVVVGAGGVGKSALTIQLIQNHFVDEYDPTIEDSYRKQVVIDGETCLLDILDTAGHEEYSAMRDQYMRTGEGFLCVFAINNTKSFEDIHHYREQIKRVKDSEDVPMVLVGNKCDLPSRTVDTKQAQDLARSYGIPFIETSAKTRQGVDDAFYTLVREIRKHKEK
For the next experiment, the target named is KRas G12R (Homo sapiens, UniProt P01116, G12R). The experiment is described as follows: biochemical. As to conditions: Binding to KRas (IC50 nM) G12R, TR-FRET displacement, KRas G12R.
KRas G12R, sequence (P01116 1-169 isoform P01116-2 G12R): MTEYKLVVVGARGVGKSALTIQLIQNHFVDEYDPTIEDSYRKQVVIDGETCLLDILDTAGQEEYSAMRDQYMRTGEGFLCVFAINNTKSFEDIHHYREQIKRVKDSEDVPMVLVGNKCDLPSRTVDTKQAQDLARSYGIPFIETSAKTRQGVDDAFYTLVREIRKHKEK
Another experiment addresses KRas G12C (Homo sapiens, UniProt P01116, G12C). The class given is binding. As to conditions: single point, 10 nM compound, read-out: Binding to KRas (% inhibition at 10 nM) G12C.
The target of another experiment is KRas G12V (Homo sapiens, UniProt P01116, G12V). The experiment is described as follows: biochemical. The conditions noted are these: Binding to KRas (IC50 nM) G12V, TR-FRET displacement, KRas G12V.
KRas G12V, sequence (P01116 1-169 isoform P01116-2 G12V): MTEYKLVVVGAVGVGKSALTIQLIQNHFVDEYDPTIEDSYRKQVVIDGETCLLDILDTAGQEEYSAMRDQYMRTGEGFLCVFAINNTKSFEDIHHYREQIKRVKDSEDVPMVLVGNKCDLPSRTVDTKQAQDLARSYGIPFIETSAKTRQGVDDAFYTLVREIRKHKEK
A further experiment addresses KRas G12A (Homo sapiens, UniProt P01116, G12A). Type of experiment: binding. The conditions noted are these: single point, 10 nM compound, read-out: Binding to KRas (% inhibition at 10 nM) G12A.
The test system of the next experiment is H358 cells. The experiment is described as follows: Inhibition of KRas-mediated phosphorylation of ERK (Cisbio HTRF pERK), H358 cells. The class given is cell-based. As to conditions: Homo sapiens; for IC50: NCI-H358, 3 h, 3 hr compound incubation, Cisbio pERK HTRF; for inhibition at 0.1 µM: NCI-H358, single point at 100 nM, 3 hrs compound incubation.
For a further experiment, the system named is ASPC1 cells. The experiment is described as follows: Inhibition of KRas-mediated phosphorylation of ERK (Cisbio HTRF pERK), ASPC1 cells. The conditions noted are these: Homo sapiens, AsPC-1 cells; for IC50: ASPC1, 3 h, 3 hr compound incubation, Cisbio pERK HTRF; for inhibition at 0.1 µM: ASPC1, single point at 100 nM, 3 hrs compound incubation. The class given is cell-based.

For orientation: inhibition means the relative decrease from the control value, in per cent. The term IC50 denotes the concentration that gives 50% inhibition. Low values mean inhibition by little substance, high ones a need for much substance.

KRas G12A, sequence (P01116 1-169 isoform P01116-2 G12A): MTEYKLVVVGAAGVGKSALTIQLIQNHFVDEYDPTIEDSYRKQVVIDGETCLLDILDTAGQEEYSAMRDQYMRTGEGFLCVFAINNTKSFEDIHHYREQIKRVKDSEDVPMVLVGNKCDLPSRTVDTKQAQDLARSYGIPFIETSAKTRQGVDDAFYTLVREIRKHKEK
KRas G12C, sequence (P01116 1-169 isoform P01116-2 G12C): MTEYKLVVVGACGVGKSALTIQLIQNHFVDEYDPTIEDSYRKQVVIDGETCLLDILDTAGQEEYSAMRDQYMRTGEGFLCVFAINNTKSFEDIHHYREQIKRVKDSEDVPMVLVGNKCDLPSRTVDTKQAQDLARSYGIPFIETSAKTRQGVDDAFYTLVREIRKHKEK
KRas G13D, sequence (P01116 1-169 isoform P01116-2 G13D): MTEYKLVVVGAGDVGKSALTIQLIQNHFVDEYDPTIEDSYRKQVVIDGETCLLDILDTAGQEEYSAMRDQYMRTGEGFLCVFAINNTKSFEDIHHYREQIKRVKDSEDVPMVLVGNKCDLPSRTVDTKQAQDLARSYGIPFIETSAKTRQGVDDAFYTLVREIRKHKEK
KRas G12S, sequence (P01116 1-169 isoform P01116-2 G12S): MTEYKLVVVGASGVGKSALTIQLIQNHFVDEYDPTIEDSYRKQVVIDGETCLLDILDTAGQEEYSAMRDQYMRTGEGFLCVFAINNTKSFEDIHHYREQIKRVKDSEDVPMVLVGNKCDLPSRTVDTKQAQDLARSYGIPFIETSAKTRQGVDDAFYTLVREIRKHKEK

For `CCc1c(F)ccc2cc(O)cc(N3CCc4c(nc(OC[C@@]56CCCN5C[C@H](F)C6)nc4N4CCCn5nc(N)c(Br)c5C4)C3)c12` [Example 296, 4-(4-(2-amino-3-bromo-7,8-dihydro-4H-pyrazolo[1,5-a][1,4]diazepin-5(6H)-yl)-2-(((2R,7aS)-2-fluorohexahydro-1H-pyrrolizin-7a-yl)methoxy)-5,6-dihydropyrido[3,4-d]pyrimidin-7(8H)-yl)-5-ethyl-6-fluoronaphthalen-2-ol], the inhibition at 0.01 µM at KRas G13D turned out to be 93%; at KRas G12S, 98%; at KRas WT it was 93%; on KRas Q61H, 93%; on KRas G12C it was 98%; on KRas G12A, 94%. Further, the IC50 in the experiment on MKN1 cells was 8.9 nM; in the experiment with H460 cells, 38 nM; in the experiment with HCT116 cells, 118 nM; at KRas G12D it was less than 2 nM; in the experiment with H727 cells, 20 nM; in the experiment with A549 cells, 12 nM. In addition, the IC50 was 6580 nM in the experiment on PSN1 cells; less than 2 nM on KRas G12R; less than 2 nM on KRas G12V; 5 nM with H358 cells; 4 nM with ASPC1 cells. The inhibition at 0.1 µM with H460 cells was found to be 78%; in the experiment on HCT116 cells, 51%; in the experiment with H727 cells, 67%; in the experiment on A549 cells, 86%; in the experiment with H358 cells, 98%; in the experiment on ASPC1 cells, 94%.
For `CCNC(=O)c1cc2n(n1)CCCCN(c1nc(OC[C@@]34CCCN3C[C@H](F)C4)nc3c1CCN(c1cc(O)cc4ccc(F)c(CC)c14)C3)C2` [Example 301, N-ethyl-5-(7-(8-ethyl-7-fluoro-3-hydroxynaphthalen-1-yl)-2-(((2R,7aS)-2-fluorotetrahydro-1H-pyrrolizin-7a(5H)-yl)methoxy)-5,6,7,8-tetrahydropyrido[3,4-d]pyrimidin-4-yl)-4,5,6,7,8,9-hexahydropyrazolo[1,5-a][1,4]diazocine-2-carboxamide], the inhibition at 0.01 µM was determined as 91% at KRas G13D; 97% at KRas G12S; 89% at KRas WT; 94% at KRas Q61H; 99% at KRas G12C; 89% at KRas G12A. Besides, the IC50 in the experiment with MKN1 cells is 12.9 nM; at KRas G12D it was less than 2 nM; in the experiment with H727 cells, 6 nM; in the experiment with PSN1 cells, 655 nM; at KRas G12R, less than 2 nM; at KRas G12V, less than 2 nM. Further, inhibition in the experiment with ASPC1 cells was half-maximal at 12 nM (IC50). For the same molecule, the inhibition at 0.1 µM in the experiment on H460 cells was 54%; in the experiment on HCT116 cells it was 34%; in the experiment with A549 cells, 85%; in the experiment with H358 cells, 102%.
Regarding `CCc1c(F)ccc2cc(O)cc(N3CCc4c(nc(OC[C@@]56CCCN5C[C@H](F)C6)nc4N4CCCn5nc(C(=O)N6CC7CCC(C7)C6)cc5C4)C3)c12` [Example 302, 3-azabicyclo[3.2.1]octan-3-yl(5-(7-(8-ethyl-7-fluoro-3-hydroxynaphthalen-1-yl)-2-(((2R,7aS)-2-fluorohexahydro-1H-pyrrolizin-7a-yl)methoxy)-5,6,7,8-tetrahydropyrido[3,4-d]pyrimidin-4-yl)-5,6,7,8-tetrahydro-4H-pyrazolo[1,5-a][1,4]diazepin-2-yl)methanone], the inhibition at 0.01 µM at KRas G13D is 91%; at KRas G12S it was 93%; on KRas WT, 89%; at KRas Q61H it was 93%; at KRas G12C, 96%; on KRas G12A, 85%. For the same molecule, the IC50 in the experiment with MKN1 cells was 26.3 nM; in the experiment on H460 cells it was 49 nM; with HCT116 cells it was 167 nM; on KRas G12D, 3 nM; in the experiment with H727 cells it was 20 nM; in the experiment on A549 cells it was 27 nM. For the same molecule, the IC50 in the experiment on PSN1 cells was 9490 nM; at KRas G12R, less than 2 nM; on KRas G12V, less than 2 nM; in the experiment with H358 cells, 6 nM; in the experiment with ASPC1 cells, 9 nM. Also, the inhibition at 0.1 µM was 66% in the experiment on H460 cells; 33% in the experiment on HCT116 cells; 70% in the experiment on H727 cells; 66% in the experiment with A549 cells; 92% in the experiment with H358 cells; 91% in the experiment on ASPC1 cells.
Turning to `CCc1c(F)ccc2cc(O)cc(N3CCc4c(nc(OC[C@@]56CCCN5C[C@H](F)C6)nc4N4CCCn5nc(C(=O)N6C[C@@H](C)N[C@@H](C)C6)cc5C4)C3)c12` [Example 303, ((3 S,5R)-3,5-dimethylpiperazin-1-yl)(5-(7-(8-ethyl-7-fluoro-3-hydroxynaphthalen-1-yl)-2-(((2R,7aS)-2-fluorohexahydro-wH-pyrrolizin-7a-yl)methoxy)-5,6,7,8-tetrahydropyrido[3,4-d]pyrimidin-4-yl)-5,6,7,8-tetrahydro-4H-pyrazolo[1,5-a][1,4]diazepin-2-yl)methanone], the inhibition at 0.01 µM amounted to 98% at KRas G13D; 99% at KRas G12S; 97% on KRas WT; 98% at KRas Q61H; 100% on KRas G12C; 98% on KRas G12A. The half-inhibitory concentration (IC50) in the experiment on MKN1 cells was 22.5 nM; with H460 cells, 73 nM; with HCT116 cells, 164 nM; at KRas G12D, less than 2 nM; with H727 cells, 36 nM; in the experiment on A549 cells it was 35 nM. The half-inhibitory concentration (IC50) in the experiment on PSN1 cells is 6700 nM; on KRas G12R, less than 2 nM; at KRas G12V, less than 2 nM; in the experiment on H358 cells, 8 nM; in the experiment with ASPC1 cells, 2 nM. Besides, the inhibition at 0.1 µM in the experiment with H460 cells was 34%; with HCT116 cells, 3%; in the experiment with A549 cells it was 62%; in the experiment on H358 cells, 98%.
Take `CCc1c(F)ccc2cc(O)cc(N3CCc4c(nc(OC[C@@]56CCCN5C[C@H](F)C6)nc4N4CCCn5nc(C(=O)N6CC7COCC6C7)cc5C4)C3)c12` (stereo partly drawn) [Example 306, 3-oxa-6-azabicyclo[3.2.1]octan-6-yl(5-(7-(8-ethyl-7-fluoro-3-hydroxynaphthalen-1-yl)-2-(((2R,7aS)-2-fluorohexahydro-1H-pyrrolizin-7a-yl)methoxy)-5,6,7,8-tetrahydropyrido[3,4-d]pyrimidin-4-yl)-5,6,7,8-tetrahydro-4H-pyrazolo[1,5-a][1,4]diazepin-2-yl)methanone]: the inhibition at 0.01 µM on KRas G13D amounted to 97%; on KRas G12S it was 99%; at KRas WT, 95%; at KRas Q61H, 96%; on KRas G12C, 99%; at KRas G12A it was 96%. The IC50 in the experiment on MKN1 cells is 7 nM; with H460 cells, 23 nM; in the experiment on HCT116 cells it was 58 nM; on KRas G12D it was less than 2 nM; in the experiment on H727 cells it was 5 nM; in the experiment on A549 cells it was 16 nM. The IC50 with PSN1 cells is 2040 nM; on KRas G12R, less than 2 nM; at KRas G12V, less than 2 nM; in the experiment on H358 cells it was 1 nM; in the experiment with ASPC1 cells, 3 nM. The inhibition at 0.1 µM came to 81% in the experiment on H460 cells; 51% in the experiment with HCT116 cells; 80% in the experiment on H727 cells; 77% in the experiment on A549 cells; 100% with H358 cells; 99% in the experiment on ASPC1 cells.
